Measured values: publication PMC9043270, “β-Blockers bearing hydroxyethylamine and hydroxyethylene as potential SARS-CoV-2 Mpro inhibitors: rational based design, in silico, in vitro, and SAR studies for lead optimization” (RSC Advances, 2021)

Target: T1, SARS-CoV-2 Mpro (3CL protease) (Severe acute respiratory syndrome coronavirus 2, UniProt P0DTD1)
T1 construct: gene rep
Test: fluorogenic substrate 3CL protease assay kit
Assay type: biochemical
Conditions: read-out: IC50 (μg ml^-1) (converted)
From the text: fluorogenic substrate 3CL protease assay kit on SARS-CoV-2 Mpro (3CL protease)

## Cc1cccc(C)c1OCC(=O)N[C@@H](Cc1ccccc1)[C@@H](O)C[C@H](Cc1ccccc1)NC(=O)[C@H](C(C)C)N1CCCNC1=O [Lopinavir]
  IC50: 117 µM

## CC(C)NCC(O)COc1ccc(COCCOC(C)C)cc1 (stereo not shown) [compound 8, Bisoprolol]
  IC50: 364 µM

## COc1ccccc1OCCNCC(O)COc1cccc2[nH]c3ccccc3c12 (stereo not shown) [compound 17, Carvedilol]
  IC50: 503 µM

## OC(CNCC(O)C1CCc2cc(F)ccc2O1)C1CCc2cc(F)ccc2O1 (stereo not shown) [compound 20, Nebivolol]
  IC50: 148 µM
